The values that follow come from patent publication US20250281568A1, “METHOD FOR TREATING OR PREVENTING DRUG-INDUCED LIVER INJURY WITH PEPTIDE COMPOSITION” (Tunghai University, priority 2024, published 2025).

Assay type in all cases: in vivo
Data set [1] is described as follows: Animal test: body weight and organ weights of mice. To be noted: 50 mg/kg/day oral, 7 days, then acetaminophen 300 mg/kg i.p. How it is done: (§1) After being raised under the corresponding conditions for 7 days, each group of mice was weighed and then fasted for 12 hours. After fasting, each group of mice was intraperitoneally injected with an acetaminophen solution at 300 mg/kg. 24 hours after the injection, the mice were sacrificed, and blood was collected from the mice.

Data set [2] deals with BALB/cByJNarl mice. As to the kind of experiment: Biochemical analysis of blood (serum) of mice injected with acetaminophen. The note with it: 50 mg/kg/day oral, 7 days. How it is done: as §1
The blood collected from each group of mice in example 2 was analyzed with a commercial assay kit in order to determine the concentrations of aspartate aminotransferase (AST), alanine aminotransferase (ALT), alkaline phosphatase (ALP), C-reactive protein (CRP), interleukin-6 (IL-6), and monocyte chemoattractant protein-1 (MCP-1) in the serum of each group of mice.

In data set [3] the test system is BALB/cByJNarl mice. The experiment in a line: Analysis of proteins in the liver of mice injected with acetaminophen. To be noted: 50 mg/kg/day oral, 7 days; vs control group. How it is done:
as §1
Livers were collected from each group of mice in example 2 and were analyzed in order to determine the concentrations of superoxidase dismutase (SOD), glutathione peroxidase (GPx), and glutathione (GSH) in the livers.

Data set [4] concerns BALB/cByJNarl mice. As to the kind of experiment: Analysis of stained liver tissue sections (H&E, immunohistochemical staining) of mice injected with acetaminophen. The note with it: 50 mg/kg/day oral, 7 days. The procedure:
as §1
The liver tissue collected from each group of mice in example 2 was sectioned and then subjected to immunohistochemical staining with hematoxylin and eosin (H&E) and with different antibodies.

[5] abbreviates: immunohistochemical staining, vs control group.

SMILES strings stand for the structures.

For `NCCC(=O)N[C@@H](Cc1cnc[nH]1)C(=O)O` [carnosine], the weight of heart entry in data set [1] (24 hours, among the groups) is recorded as “no significant difference in the weight of heart”. For the same compound, in data set [1] (vs control group), the liver weight entry is recorded as “liver weight of the control group of mice was significantly higher than those of the other groups”. Further, the “serum CRP concentration” value in data set [2] (vs blank group) is listed as “not significantly different from that of the blank group”. Further, in data set [2] (vs control group), the “serum ALP concentration” value is listed as “significantly lower than those of the control group”, the “serum ALT concentration” value is listed as “significantly lower than those of the control group”, the “serum AST concentration” value is “significantly lower than those of the control group” and the “serum CRP concentration” value was “significantly lower than that of the control group”. In data set [2] (vs control group), the “serum IL-6 concentration” value was “lower than that of the control group” and the “serum MCP-1 concentration” value is reported as “significantly lower than that of the control group”. In data set [3], the “liver GPx concentration” value is listed as “significantly higher than those of the control group”, the “liver GSH concentration” value is listed as “significantly higher than those of the control group” and the “liver SOD concentration” value is recorded as “significantly higher than those of the control group”. Moreover, in data set [4] (setting [5]), the “expression amount of 4-hydroxy-2-nonenal (4-HNE) in the liver” value is listed as “significantly less”, the “expression amount of GSH in the liver” value is “significantly greater”, the “expression amount of Kelch-like ECH-associated protein 1 (Keap1) in the liver” value is given as “significantly less” and the “expression amount of heme oxygenase 1 (HO-1) in the liver” value is reported as “significantly greater”. Also, the “expression amount of nuclear factor erythroid 2-related factor 2 (Nrf2) in the liver” value in data set [4] (setting [5]) is given as “significantly greater”. The “liver cell damage (H&E-stained liver section)” value in data set [4] (vs blank group) was “significantly damaged in comparison with those of the blank group”. Besides, the “liver cell damage (H&E-stained liver section)” value in data set [4] (vs control group) is “damaged to a smaller extent than those of the control group”.
